From patent US9102675B2, “3-Cyanoaryl-1H-pyrrolo[2,3-B] pyridine derivatives” (MERCK PATENT GMBH, priority 2011, dated 2015) come the findings set out here.

For assay [1], the target named is T1, TANK binding kinase (TBK1) (Homo sapiens, UniProt Q9UHD2).
T1 sequence (Q9UHD2 1-729): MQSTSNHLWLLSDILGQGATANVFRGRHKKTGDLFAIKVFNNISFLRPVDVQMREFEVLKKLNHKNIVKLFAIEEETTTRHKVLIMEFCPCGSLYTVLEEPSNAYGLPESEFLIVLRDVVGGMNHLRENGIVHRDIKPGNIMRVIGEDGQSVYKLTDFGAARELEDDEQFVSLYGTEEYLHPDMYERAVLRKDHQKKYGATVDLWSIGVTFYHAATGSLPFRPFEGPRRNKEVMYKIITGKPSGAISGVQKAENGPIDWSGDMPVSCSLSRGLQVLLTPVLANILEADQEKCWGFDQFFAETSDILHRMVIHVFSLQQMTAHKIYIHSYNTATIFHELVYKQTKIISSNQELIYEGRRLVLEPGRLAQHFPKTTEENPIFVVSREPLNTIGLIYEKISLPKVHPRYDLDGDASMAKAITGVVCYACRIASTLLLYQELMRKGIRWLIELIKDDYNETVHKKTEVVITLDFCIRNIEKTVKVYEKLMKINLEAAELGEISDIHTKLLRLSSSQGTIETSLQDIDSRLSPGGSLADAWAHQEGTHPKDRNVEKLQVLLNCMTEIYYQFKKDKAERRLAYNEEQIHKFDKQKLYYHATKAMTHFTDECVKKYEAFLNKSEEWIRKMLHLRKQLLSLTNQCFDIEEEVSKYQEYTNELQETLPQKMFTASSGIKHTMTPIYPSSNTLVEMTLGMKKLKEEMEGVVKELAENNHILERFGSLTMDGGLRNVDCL
Briefly: TBK1 enzyme assay (384-well flashplate kinase assay). The format is biochemical. Conditions: 10 μM ATP, 0.6 nM TBK1. On the procedure:
Test for the Inhibition of TBK1
(§1) The kinase assay is performed as 384-well flashplate assay (for example for Topcount measurement).
0.6 nM TANK binding kinase (TBK1), 800 nM biotinylated MELK-derived peptide (biotin-Ah-Ah-[…]) and 10 μM ATP (spiked with 0.25 μCi of ^33P-ATP/well) are incubated at 30° C. for 120 min in a total volume of 50 μl (10 mM MOPS, 10 mM Mg acetate, 0.1 mM EGTA, 1 mM DTT, 0.02% of Brij35, 0.1% of BSA, pH 7.5) with or without test compound. The reaction is stopped with 25 μl of 200 mM EDTA. After 30 min at room temperature, the liquid is removed, and each well is washed three times with 100 μl of 0.9% sodium chloride solution. Non-specific reaction is measured in the presence of 100 nM staurosporine. The radioactivity is measured in a Topcount (PerkinElmer). The results (for example IC50 values) are calculated using program tools provided by the IT Department (for example Assay-Explorer, Symyx). Cell Test

A further assay has as its target T2, IKKε (Homo sapiens, UniProt Q14164).
T2 sequence (Q14164 1-716): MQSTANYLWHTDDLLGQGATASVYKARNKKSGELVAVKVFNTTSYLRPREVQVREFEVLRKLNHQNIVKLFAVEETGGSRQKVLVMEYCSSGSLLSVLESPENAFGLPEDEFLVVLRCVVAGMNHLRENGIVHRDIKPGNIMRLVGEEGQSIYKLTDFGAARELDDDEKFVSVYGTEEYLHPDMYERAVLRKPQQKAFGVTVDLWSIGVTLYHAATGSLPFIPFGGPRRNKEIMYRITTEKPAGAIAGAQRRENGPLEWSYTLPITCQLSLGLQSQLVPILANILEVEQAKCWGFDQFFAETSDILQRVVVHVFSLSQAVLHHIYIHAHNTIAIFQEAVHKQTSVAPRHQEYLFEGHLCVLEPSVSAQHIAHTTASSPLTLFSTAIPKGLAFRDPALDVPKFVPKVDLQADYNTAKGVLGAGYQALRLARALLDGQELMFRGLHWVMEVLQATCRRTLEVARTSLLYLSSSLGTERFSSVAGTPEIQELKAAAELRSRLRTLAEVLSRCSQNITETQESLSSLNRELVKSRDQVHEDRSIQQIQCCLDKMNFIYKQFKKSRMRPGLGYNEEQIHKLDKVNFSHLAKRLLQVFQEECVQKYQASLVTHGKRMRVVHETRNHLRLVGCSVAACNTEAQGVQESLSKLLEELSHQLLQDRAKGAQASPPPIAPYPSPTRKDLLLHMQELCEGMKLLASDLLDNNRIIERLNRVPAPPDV
The experiment in a line: IKKε kinase assay (384-well flashplate assay). Type of assay: biochemical. Conditions: 10 μM ATP, 1 nM IKKε; read-out: IKKε enzyme assay IC50. On the procedure: Test for the Inhibition of IKKε
IKKε—Kinase Assay (IKKepsilon)
as §1
1 nM IKKε, 800 nM biotinylated IκKα(19-42) peptide (Biotin-C6-C6-[…]) and 10 μM ATP (spiked with 0.3 μCi of ^33P-ATP/well) are incubated at 30° C. for 2 hours in a total volume of 50 μl (10 mM MOPS, 10 mM Mg acetate, 0.1 mM EGTA, 1 mM dithiothreitol, 0.02% of Brij35, 0.1% of BSA, 0.1% of BioStab, pH 7.5) with or without test compound. The reaction is stopped using 25 μl of 200 mM EDTA. After 30 min at room temperature, the liquid is removed, and each well is washed three times with 100 μl of 0.9% sodium chloride solution. Non-specific reaction is determined in the presence of 3 μM MSC2119074 (BX-795). The radioactivity is measured using a Topcount (Perkin Elmer). The results (for example IC50 values) are calculated using program tools provided by the IT Department (for example AssayExplorer, Symyx).

What is called IC50 is the concentration that inhibits the measured activity by half.

Structures are written as SMILES.

In the case of `N#Cc1cc(-c2c[nH]c3ncc(-c4cnn(C5COC5)c4)cc23)ccc1OC1COC1` [Compound A34, 2-(oxetan-3-yloxy)-5-[5-(1-oxetan-3-yl-1H-pyrazol-4-yl)-1H-pyrrolo-[2,3-b]pyridin-3-yl]benzonitrile], the IC50 (in assay [1]; on IKKε) was < 300 nM throughout.

On to `Cn1cc(-c2cnc3[nH]cc(-c4ccc(OC5CCOCC5)c(C#N)c4)c3c2)cn1` [Compound A4, 5-[5-(1-methylpyrazol-4-yl)-1H-pyrrolo[2,3-b]pyridin-3-yl]-2-tetrahydropyran-4-yloxybenzonitrile], for which the IC50 (in assay [1]; on IKKε) was < 300 nM throughout.

On to `Cn1cc(-c2cnc3[nH]cc(-c4ccc(OC5COC5)c(C#N)c4)c3c2)cn1` [Compound A31, 5-[5-(1-methyl-1H-pyrazol-4-yl)-1H-pyrrolo[2,3-b]pyridin-3-yl]-2-(oxetan-3-yloxy)benzonitrile], for which the half-inhibitory concentration (IC50) (in assay [1]; at IKKε) was < 300 nM in each case.

As to `N#Cc1cc(-c2c[nH]c3ncc(OCCN4CCOCC4)cc23)ccc1OC1CCOCC1` [Compound A21, 5-[5-(2-morpholinoethoxy)-1H-pyrrolo[2,3-b]pyridin-3-yl]-2-tetrahydropyran-4-yloxybenzonitrile], the IC50 (in assay [1]; on IKKε) was < 300 nM throughout.

Turning to `Cn1cc(-c2cnc3[nH]cc(-c4ccc(OCC5(C)COC5)c(C#N)c4)c3c2)cn1` [Compound A32, 2-(3-methyloxetan-3-ylmethoxy)-5-[5-(1-methyl-1H-pyrazol-4-yl)-1H-pyrrolo[2,3-b]pyridin-3-yl]benzonitrile], the half-maximal inhibitory concentration (IC50) (in assay [1]; at IKKε) was < 300 nM each time.

`N#Cc1cc(-c2c[nH]c3ncc(-c4cnn(CCN5CCCC5)c4)cc23)cnc1OC1CCOCC1` [Compound A33, 5-{5-[1-(2-Pyrrolidin-1-ylethyl)-1H-pyrazol-4-yl]-1H-pyrrolo[2,3-b]pyridin-3-yl}-2-(tetrahydropyran-4-yl-oxy)nicotinonitrile]: the IC50 (in assay [1]; at IKKε) was < 300 nM in each case.

For `N#Cc1cc(-c2c[nH]c3ncc(-c4cnn(CCN5CCOCC5)c4)cc23)ccc1OC1CCOCC1` [Compound A7, 5-[5-[1-(2-morpholinoethyl)pyrazol-4-yl]-1H-pyrrolo[2,3-b]pyridin-3-yl]-2-tetrahydropyran-4-yloxybenzonitrile], the IC50 (in assay [1]; on IKKε) was < 300 nM throughout.

Regarding `N#Cc1cc(-c2c[nH]c3ncc(-c4ccc(N5CCOCC5)cc4)cc23)ccc1OC1CCOCC1` [Compound A8, 5-[5-(4-morpholinophenyl)-1H-pyrrolo[2,3-b]pyridin-3-yl]-2-tetrahydropyran-4-yloxybenzonitrile], the IC50 (in assay [1]; at IKKε) was < 300 nM throughout.

As for `COCCn1cc(-c2cnc3[nH]cc(-c4cnc(OC5CCOCC5)c(C#N)c4)c3c2)cn1` [Compound A38, 5-{5-[1-(2-Methoxyethyl)-1H-pyrazol-4-yl]-1H-pyrrolo-[2,3-b]pyridin-3-yl}-2-(tetrahydropyran-4-yloxy)-nicotinonitrile], the IC50 (in assay [1]; on IKKε) was < 300 nM in each case.

`N#Cc1cc(-c2c[nH]c3ncc(-c4cn(C5CCNCC5)nn4)cc23)ccc1OC1CCOCC1` [Compound A22, 5-[5-[1-(4-piperidyl)triazol-4-yl]-1H-pyrrolo[2,3-b]pyridin-3-yl]-2-tetrahydropyran-4-yloxybenzonitrile]: the 50% inhibitory concentration (IC50) (in assay [1]; on IKKε) was < 300 nM each time.

For `CN1CCC(n2cc(-c3cnc4[nH]cc(-c5ccc(OC6CCOCC6)c(C#N)c5)c4c3)cn2)CC1` [Compound A16, 5-[5-[1-(1-methyl-4-piperidyl)pyrazol-4-yl]-1H-pyrrolo[2,3-b]pyridin-3-yl]-2-tetrahydropyran-4-yloxybenzonitrile], the IC50 (in assay [1]; on IKKε) was < 300 nM each time.

As for `N#Cc1cc(-c2c[nH]c3ncc(-c4cnn(C5COC5)c4)cc23)ccc1OC1CCOCC1` [Compound A26, 5-[5-[1-(Oxetan-3-yl)pyrazol-4-yl]-1H-pyrrolo[2,3-b]-pyridin-3-yl]-2-tetrahydropyran-4-yloxybenzonitrile], the IC50 (in assay [1]; on IKKε) was < 300 nM throughout.

On to `N#Cc1cc(-c2c[nH]c3ncccc23)ccc1OC1CCOCC1` [Compound A1, 5-(1H-pyrrolo[2,3-b]pyridin-3-yl)-2-tetrahydropyran-4-yloxybenzonitrile], for which the IC50 (in assay [1]; on IKKε) was < 300 nM throughout.

Take `CN1CCC(n2cc(-c3cnc4[nH]cc(-c5ccc(OC6CCOCC6)c(C#N)c5)c4c3)cn2)CC1` [Compound A20, 5-[5-[1-(1-methyl-4-piperidyl)pyrazol-4-yl]-1H-pyrrolo[2,3-b]pyridin-3-yl]-2-tetrahydropyran-4-yloxybenzonitrile]: the 50% inhibitory concentration (IC50) (in assay [1]; at IKKε) was < 300 nM each time.

Consider `CN1CCC(n2cc(-c3cnc4[nH]cc(-c5ccc(OC6CCOCC6)c(C#N)c5)c4c3)nn2)CC1` [Compound A23, 5-[5-[1-(1-methyl-4-piperidyl)triazol-4-yl]-1H-pyrrolo[2,3-b]pyridin-3-yl]-2-tetrahydropyran-4-yloxybenzonitrile], for which the IC50 (in assay [1]; on IKKε) was < 300 nM throughout.

As to `N#Cc1cc(-c2c[nH]c3ncc(-c4cnn(C5CCNCC5)c4)cc23)cnc1OC1CCOCC1` [Compound A18, 5-[5-[1-(4-piperidyl)pyrazol-4-yl]-1H-pyrrolo[2,3-b]pyridin-3-yl]-2-tetrahydropyran-4-yloxypyridine-3-carbonitrile], the IC50 (in assay [1]; on IKKε) was < 300 nM each time.

Take `CN1CCC(Oc2ccc(-c3c[nH]c4ncc(-c5cnn(C)c5)cc34)cc2C#N)CC1` [Compound A13, 2-(1-methylpiperidin-4-yloxy)-5-[5-(1-methyl-1H-pyrazol-4-yl)-1H-pyrrolo[2,3-b]pyridin-3-yl]benzonitrile]: the IC50 (in assay [1]; on IKKε) was < 300 nM each time.

Take `Cn1cc(-c2cnc3[nH]cc(-c4cnc(OC5CCOCC5)c(C#N)c4)c3c2)cn1` [Compound A30, 5-[5-(1-Methylpyrazol-4-yl)-1H-pyrrolo[2,3-b]pyridin-3-yl]-2-tetrahydropyran-4-yloxypyridine-3-carbonitrile]: the IC50 (in assay [1]; at IKKε) was < 300 nM each time.
